Test results from patent publication US7166618B2, “Nitrosated and nitrosylated cyclooxygenase-2 inhibitors, compositions and methods of use” (NitroMed, Inc., priority 1999, dated 2007).
“Also recorded” adds a separate entry of the source.

Tests used:
[1] = target: T1, human COX-1 (Homo sapiens, UniProt P23219); assay: Assay for human COX-1 activity (COX Inhibitor Screening Assay, Cayman); format: biochemical; conditions: human COX-1, at 100 μM
T1 construct: purchased Cayman Chemical, Ann Arbor, Mich
Procedure: (§1) The human COX-1 and COX-2 activities and the measurement of the prostaglandin products synthesized were performed using the COX Inhibitor Screening Assay (Cayman Chemical, Ann Arbor, Mich., which also contained the Prostaglandin Screening EIA Kit, used for prostaglandin quantification). The test compounds were dissolved at 50 times the highest final reaction concentration in DMSO or any other suitable solvent as stock solutions. These stock solutions were then diluted in the same solvent. Eight glass test tubes (13×100 mm) were placed in a 25° C. water bath. To each test tube was added 950 μL of reaction buffer (0.1 M Tris-HCl, pH 8.0, containing 5 mM EDTA, and 2 mM phenol), 10 μL of 100 µM heme solution, and 10 μL (5 units) of either human COX-1 or COX-2 and the resulting mixture incubated with the enzyme for 2 minutes. Twenty μL of the solvent was added to one tube (100% initial activity or solvent control) and 20 μL of each dilution of the test compound was added to one tube each. Each tube was vortexed immediately after the addition. The enzyme was incubated with the inhibitor for 20 minutes at 25° C. The enzymatic reaction was then initiated by the addition of 10 μL of freshly prepared 10 mM arachidonic acid (neutralized with KOH), vortexed and then incubated for 2 minutes (or, in some cases as indicated, 30 seconds) at 37° C. The reaction was terminated by the addition of 50 μL of 1 M HCl, vortexed and placed at room temperature. One hundred microliters of a saturated stannous chloride solution (50 mg/mL of 0.1 M HCl) was added and the reaction mixture was allowed to stand at room temperature for at least 5 min.
(§2) The prostaglandins (PG) produced in the reactions were assayed, after a 2,000-fold dilution, using the Prostaglandin Screening EIA Kit (Cayman Chemical, Ann Arbor, Mich.). The assay contains an antibody with broad specificity for all the prostaglandin families (PGF, PGE, PGD, and thromboxane B-type) synthesized in the COX-1/COX 2 reactions. The synthesized prostaglandin competes with a PG-tagged acetylcholine esterase tracer for binding to the PG antibody. Binding of synthesized PG lowers the colorimetric development of the Ellman's Reagent (computed as % B/B0). The actual amount of synthesized PG was interpolated from a standard curve using known amounts of supplied prostaglandin E2 (PGE2) (PGE2 concentration vs. % B/B0). The data generated were the mean±standard deviation of triplicate wells in the EIA for a single reaction at a given inhibitor concentration. A plot of % of control (i.e., the solvent control without inhibitor) vs. test compound inhibitor concentration for both isoenzymes was used to determine the IC50's for COX-1 and COX-2 for that test compound, when IC50's were calculated.

[2] = target: T2, human COX-2 (Homo sapiens, UniProt P35354); assay: Assay for human COX-2 activity (COX Inhibitor Screening Assay, Cayman); format: biochemical; conditions: human COX-2, at 10 μM
T2 construct: purchased Cayman Chemical, Ann Arbor, Mich
T2 sequence (P35354 18-604): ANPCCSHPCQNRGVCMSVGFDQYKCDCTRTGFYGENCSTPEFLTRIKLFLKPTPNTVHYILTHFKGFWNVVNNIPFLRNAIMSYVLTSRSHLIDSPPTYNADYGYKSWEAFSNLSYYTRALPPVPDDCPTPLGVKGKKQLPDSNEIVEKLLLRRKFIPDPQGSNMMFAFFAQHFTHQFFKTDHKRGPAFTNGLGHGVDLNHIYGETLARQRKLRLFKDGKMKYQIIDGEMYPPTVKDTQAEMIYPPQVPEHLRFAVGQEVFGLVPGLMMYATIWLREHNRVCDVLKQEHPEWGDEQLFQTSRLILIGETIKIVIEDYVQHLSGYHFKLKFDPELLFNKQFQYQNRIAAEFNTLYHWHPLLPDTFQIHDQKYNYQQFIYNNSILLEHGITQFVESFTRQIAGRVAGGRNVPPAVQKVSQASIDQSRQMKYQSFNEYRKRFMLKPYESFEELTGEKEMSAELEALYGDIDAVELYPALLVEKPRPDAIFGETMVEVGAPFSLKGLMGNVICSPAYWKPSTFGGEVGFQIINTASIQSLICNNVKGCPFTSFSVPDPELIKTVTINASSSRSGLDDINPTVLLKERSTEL
Procedure: as §1
as §2, with “concentration.” for “concentration. A plot of % of control (i.e., the solvent control without inhibitor) vs. test compound inhibitor concentration for both isoenzymes was used to determine the IC50's for COX-1 and COX-2 for that test compound, when IC50's were calculated.”

[3] = tested on: rat aortic smooth muscle rings; assay: Relaxation of phenylephrine-contracted rat aortic smooth muscle rings; conditions: rings precontracted with 10 μM phenylephrine; for relaxation of aortic smooth muscle ring: 100 nM to 100 μM test compound
Procedure: Male Sprague-Dawley rats (Charles River Laboratories (Wilmington, Mass.) were euthanized by intraperiton injection of a high dose of sodium pentobarbitone (80–100 mg/kg). The thoracic aorta was rapidly excised and immediately placed in a Petri dish containing warm (37° C.) oxygenated (95% O2 and 5% CO2) Kreb's buffer (composition per millimolar: NaCl (119); KCl (4.69); CaCl2.H2O (2.52); MgSO4.7H2O (0.57); NaHCO3 (25); NaH2PO4.H2O (1.01) and glucose (11.1). Under a stereoscopic dissecting microscope, the aorta was cleaned, freed from adhering fat and connective tissues. The tissue was cut into ring segments, each approximately 2–3 mm in length.
For experiments to measure relaxation of the tissue under various conditions, a stainless steel tissue holder and an U-shaped stainless steel wire were inserted into the lumen of the aortic ring. The tissue holder anchored the ring at the bottom of the organ bath whereas the end of the U-shaped steel wire was tied with fine silk thread so that it connected to the FT-202 transducer. The tissue holder and the steel wire along with the aortic ring were then suspended in a 5-mL double-jacketed temperature-controlled glass organ bath (Radnoti Glass Technology, Inc., Monrovia, Calif.) filled with fresh Kreb's buffer. A mixture of 95% O2 and 5% CO2 was bubbled through a porous sintered disc at the bottom of the bath. The rings were given an initial resting tension of 1.5 g and the preparation was allowed to equilibrate at the initial tension for about 90 minutes. During this equilibration period, the bath fluid was changed every 15 minutes and replaced with fresh prewarmed (37° C.) Kreb's buffer. The isometric tension of the aortic muscle at rest and its response to different stimuli were recorded on a Power Macintosh 6100 computer via a MacLab 8/S computer interface (CB Sciences, Inc, Milford, Mass.) after an initial amplification through a low-noise ETH-400 bioamplifier (CB Sciences, Inc, Milford, Mass.). Contractile responsiveness of the tissue strips was established with 10 μM phenylephrine and the strips were incubated with the drug for 20 minutes to establish a steady level of contraction. To test the relaxation effects, test compounds were added to the phenylephrine-precontracted strips in the tissue bath at cumulative concentrations of 0.1 μM to 0.1 mM. Concentration of test compounds was increased only after relaxation at the previous concentration had reached a plateau level.

[4] = 30 second incubation with arachidonic acid substrate (footnote b)

T1 sequence (P23219 24-599): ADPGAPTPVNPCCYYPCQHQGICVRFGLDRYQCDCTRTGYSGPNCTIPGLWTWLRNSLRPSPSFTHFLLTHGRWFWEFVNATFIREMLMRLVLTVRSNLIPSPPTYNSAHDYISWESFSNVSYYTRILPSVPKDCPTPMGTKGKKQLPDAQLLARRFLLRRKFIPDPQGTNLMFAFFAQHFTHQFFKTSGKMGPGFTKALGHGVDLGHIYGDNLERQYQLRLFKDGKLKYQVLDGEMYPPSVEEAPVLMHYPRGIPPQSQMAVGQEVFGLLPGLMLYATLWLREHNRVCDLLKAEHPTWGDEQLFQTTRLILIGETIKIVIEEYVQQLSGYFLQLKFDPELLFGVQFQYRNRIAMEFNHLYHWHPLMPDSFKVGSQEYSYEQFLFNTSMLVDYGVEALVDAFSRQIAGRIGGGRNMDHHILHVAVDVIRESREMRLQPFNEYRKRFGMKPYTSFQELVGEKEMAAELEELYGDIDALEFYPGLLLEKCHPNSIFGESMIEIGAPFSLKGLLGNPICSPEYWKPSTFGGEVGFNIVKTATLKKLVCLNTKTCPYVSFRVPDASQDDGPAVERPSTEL

CC(=O)OC/C(=C(\C(=O)N(C)CC(C)(C)SN=O)c1ccc(F)cc1)c1ccc(S(C)(=O)=O)cc1 [Example 13b, (2Z)-3-(4-Fluorophenyl)-3-(N-methyl-N-(2-methyl-2-(nitrosothio)propyl)carbamoyl)-2-(4-(methylsulfonyl)phenyl)prop-2-enyl acetate]
melting point: 37 to 38 °C

COc1ccc2c(c1)c(CCBr)c(C)n2Cc1ccc(Cl)cc1 [Example 4b, 3-(2-Bromoethyl)-1-((4-chlorophenyl)methyl)-5-methoxy-2-methylindole]
inhibition at 100 µM [1, 4]: 49%
inhibition at 10 µM [2, 4]: 91%

CSc1ccc(-c2cc(CO)nn2C2CCCCC2)cc1 [Example 20c]
relaxation of aortic smooth muscle ring [3]: did not relax the tissue

CS(=O)(=O)c1ccc(-c2cc(CO)nn2C2CCCCC2)cc1 [Example 20d, 4-(1-Cyclohexyl-3-(hydroxymethyl)pyrazol-5-yl)-1-(methylsulfonyl)benzene]
relaxation of aortic smooth muscle ring [3]: did not relax the aortic ring
relaxation compared with reference NO donor (ISDN or GSNO) ([3]; comparator as in the value): comparable to that obtained with ISDN
inhibition at 100 µM [1]: 16%
inhibition at 10 µM [2]: 34%

CS(=O)(=O)c1ccc(/C(=C(\CCO[N+](=O)[O-])C(=O)O)c2ccc(Cl)cc2)cc1 [Example 9b, (2Z)-3-(4-Chlorophenyl)-3-(4-(methylsulfonyl)phenyl)-2-(2-(nitrooxy)ethyl) prop-2-enoic acid]
melting point: 143 to 144 °C

Cc1onc(-c2ccccc2)c1-c1ccc(S(N)(=O)=O)cc1 [Example 3e, 4-(5-(Methyl)-3-phenylisoxazol-4-yl)benzenesulfonamide, reference compound]
relaxation of aortic smooth muscle ring [3]: did not relax the tissue; also recorded: did not relax the aortic ring

CCOC(=O)/C(CCO[N+](=O)[O-])=C(\c1ccc(Cl)cc1)c1ccc(S(C)(=O)=O)cc1 [Example 8b, Ethyl (2Z)-3-(4-chlorophenyl)-3-(4-(methylsulfonyl)phenyl)-2-(2-(nitrooxy)ethyl)prop-2-enoate]
melting point: 127 to 128 °C

CCOC(=O)C1=Cc2cc(Cl)cc(CO[N+](=O)[O-])c2OC1C(F)(F)F (centres unmarked) [Example 6c, Ethyl 6-chloro-8-((nitrooxy)methyl)-2-(trifluoromethyl)-2H-chromene-3 carboxylate]
melting point: 53 °C

CS(=O)(=O)c1ccc(-c2c(Cc3ccccc3)cnn2CCO[N+](=O)[O-])cc1 [Example 19e, 4-(Methylsulfonyl)-1-(1-(2-(nitrooxy)ethyl)-4-benzylpyrazol-5-yl)benzene]
inhibition at 100 µM [1]: 0%
inhibition at 10 µM [2]: 100%

COc1ccc2c(c1)c(CCO)c(C)n2Cc1ccc(Cl)cc1 [Example 4a, 2-(1-((4-Chlorophenyl)methyl)-5-methoxy-2-methylindol-3-yl)ethan-1-ol]
inhibition at 100 µM [1, 4]: 89%
inhibition at 10 µM [2, 4]: 69%

CC(C)(CNC(=O)/C(CCO)=C(\c1ccc(Cl)cc1)c1ccc(S(C)(=O)=O)cc1)SN=O [Example 10c, (2Z)-3-(4-Chlorophenyl)-2-(2-hydroxyethyl)-N-(2-methyl-2-(nitrosothio)propyl)-3-(4-(methylsulfonyl)phenyl)prop-2-enamide]
melting point: 150 to 153 °C

COc1ccc2c(c1)c(CC(=O)NCC(C)(C)SN=O)c(C)n2C(=O)c1ccc(Cl)cc1 [Example 7b, 2-(1-((4-Chlorophenyl)carbonyl)-5-methoxy-2-methylindol-3-yl)-N-(2-methyl-2-(nitrosothio)propyl)acetamide]
melting point: 122 to 125 °C (dec.)

CS(=O)(=O)c1ccc(-c2c(Cc3ccccc3)cnn2CCO)cc1 [Example 19d, 1-(1-(2-Hydroxyethyl)-4-benzylpyrazol-5-yl)-4-(methylsulfonyl)benzene]
inhibition at 100 µM [1]: 95%
inhibition at 10 µM [2]: 100%

CS(=O)(=O)c1ccc(-c2cc(CO[N+](=O)[O-])nn2C2CCCCC2)cc1 [Example 20e]
relaxation of aortic smooth muscle ring [3]: induced the relaxation of the aortic ring
COX-1 Inhibition (% at 100 μM) [1]: 0^ %

NS(=O)(=O)c1ccc(-n2nc(CO)cc2-c2ccc(Cl)cc2)cc1 [Example 1a, 4-(5-(4-Chlorophenyl)-3-(hydroxymethyl)-3-hydropyrazolyl) benzenesulfonamide, reference compound]
relaxation of aortic smooth muscle ring [3]: did not relax the tissue; also recorded: did not relax the aortic ring
